In patent EP2905024A1 (Institut Quimic De Sarriá Cets, Fundació Privada, priority 2014, dated 2015) one finds EC50 and CC50 data, which are given here for 28 compounds.

Broadly, the EC50 is the concentration needed to bring the measured effect to its halfway point. A lower EC50 goes with an effect from little substance. Usually CC50 stands for the concentration at which the toxic effect on the cells reaches its halfway point. Read a low CC50 as greater toxicity to the cells.

The subject of data set [1] is subgenomic HCV genotype 1b replicon, I389/NS3-3'/ LucUbiNeo-ET. Description: in vitro antiviral activity: luciferase assay in LucUbiNeo-ET HCV replicon cells. The data set is classed as cell-based. Particulars: Hepatitis C virus, 48 h, 2 days of incubation, luciferase readout, mean of duplicates. The source says:
(§1) To analyze the antiviral activity of the compounds, we used a stable cell line, LucUbiNeo-ET, that contains a subgenomic HCV genotype 1b replicon, I389/NS3-3'/ LucUbiNeo-ET, that express luciferase constitutively (Krieger et al, JVI 2001; 75:4614; Frese et al., JGV 2003; 84: 1253-1259). To evaluate the cellular toxicity, we use other cell line, Huh-7/Lunet (Friebe et al., JVI 2005; 79: 380-392), that originally carried a selectable luciferase HCV 1b replicon and was cured by treatment with an HCV-specific inhibitor. These cells are characterized by high permissiveness for HCV RNA replication. LucUbiNeo-ET cell line was cultured at 37°C in a humidified atmosphere with 5% CO2 in Dulbecco's modified Eagle medium (D-MEM) supplemented with high glucose concentration (4.5g/l) (Invitrogen), 10% (vol/vol) heat-inactivated fetal bovine serum (Hyclone, Cultek), 2mM L-Glutamine (Sigma-aldrich), 1mM sodium pyruvate (Sigma-aldrich), 1% MEM NEEA (Sigma-aldrich), and 0.5 mg/ml of Geneticin (G418) (Gibco, Invitrogen). Cured or Huh-7/Lunet cell line was maintained at the same conditions as described above without the addition of Geneticin.
(§2) Antiviral activity was carried out in white-clear bottom 96-well plates, and cytotoxicity assays were performed in clear 96-well plates. Cells were seeded at a density of 10^4/well in 100ul D-MEM without selection of antibiotics. After 24h, nine fivefold serial dilution of compounds, with 3 replicates at each dilution, were prepared in D-MEM and added to the appropriate wells, yielding concentrations of 125 to 0,00032 ug/ml in a final volume of 100 ul of D-MEM. Following 2 days of incubation, we determined the antiviral activity (EC50) by quantifying the luciferase with the Luciferase Bright Glo assay (Promega). Briefly, LucUbiNeo-ET cells were harvested with the addition of 100 ul of luciferase per well, and after 2 minutes of shaking, the light was read in a Luminometer Fluoroskan Ascent FL. Toxicity (CC50) was analysed in the Lunet/HuH7 cells by the addition of 10 ul of MTT (3-(4,5-dimethylthiazol-2-yl)-2,5-diphenyltetrazolium bromide) per well. After 4h of incubation at 37°C in a humidified atmosphere with 5% CO2, the amount of formazan produced was quantified spectrophotometrically at 550/620 nm [C. Pannecouque et al, Nature protocol 2008; 3 (3): 427-434]. The EC50 and CC50 values were calculated for each compound. These assays were done in duplicate and the results shown in Table 1 represent the mean value of these duplicates.
(In antiviral work, replicon cells carry a viral genome segment that copies itself.)

A short description of the next data set: cytotoxicity assay (MTT). The note with it: human, Lunet/HuH7 cells, 2 days of incubation, mean of duplicates; for CC50 at 2 days: Huh-7/Lunet cells (cured HCV replicon cells); for CC50 at 48 h: huh-7/lunet cells. The data set is classed as cell-based.
Source text: as §1, §2

In data set [1], `CCn1c(=O)c(-c2c(Cl)cccc2Cl)cc2c(N)nc(Nc3ccccc3)nc21` [Example 54, 4-amino-6-(2,6-dichlorophenyl)-8-ethyl-2-(phenylamino)pyrido[2,3-d] pyrimidine-7(8H)-one] displayed an EC50 of 1 to 5 µM. Moreover, the CC50 at 2 days in the data set “cytotoxicity assay (MTT)” was no less than 25 µM.

Regarding `O=c1[nH]c2nc(Nc3ccccc3)[nH]c(=O)c2cc1-c1ccc(F)cc1` [Example 29, 6-(4-fluorophenyl)-2-(phenylamino)pyrido[2,3-d]pyrimidine-4,7(3H,8H)-dione], the EC50 in data set [1] is less than 1 µM. The compound also gave a CC50 at 2 days in the data set “cytotoxicity assay (MTT)” of 10 to 25 µM.

As to `Nc1nc(Nc2ccccc2)nc2[nH]c(=O)c(-c3c(F)cccc3F)cc12` [Example 34, 4-amino-6-(2,6-difluorophenyl)-2-(phenylamino)pyrido[2,3-d]pyrimidine-7(8H)-one], the EC50 in data set [1] was 5 to 22 µM. Moreover, the CC50 at 2 days in the data set “cytotoxicity assay (MTT)” was less than 10 µM.

In turn, `O=C1Nc2nc(Nc3ccccc3)[nH]c(=O)c2CC1c1ccccc1` (centres unmarked) [Example 18, 6-phenyl-2-(phenylamino)-5,6-dihydropyrido[2,3-d]pyrimidine-4,7(3H,8H)-dione] yielded an EC50 in data set [1] of 1 to 5 µM. For the same compound, the CC50 at 2 days in “cytotoxicity assay (MTT)” is no less than 25 µM.

In data set [1], `Cn1c(=O)c(-c2c(F)cccc2C(F)(F)F)cc2c(N)nc(Nc3ccccc3)nc21` [Example 51, 4-amino-6-(2-fluoro-6-(trifluoromethyl)phenyl)-8-methyl-2-(phenylamino) pyrido[2,3-d]pyrimidine-7(8H)-one] returned an EC50 of 1 to 5 µM. Also, in “cytotoxicity assay (MTT)”, the CC50 at 2 days is less than 10 µM.

Compound `CCCCn1c(=O)c(-c2c(Cl)cccc2Cl)cc2c(N)nc(Nc3ccccc3)nc21` [Example 56, 4-amino-8-butyl-6-(2,6-dichlorophenyl)-2-(phenylamino)pyrido[2,3-d] pyrimidine-7(8H)-one] registered a 50% effective concentration (EC50) in data set [1] of 5 to 22 µM. The same compound returned a CC50 at 2 days in “cytotoxicity assay (MTT)” of no less than 25 µM.

In data set [1], `CCCCCNc1nc(N)nc2c1cc(-c1ccc(F)cc1)c(=O)n2C` [Example 42, 2-amino-6-(4-fluorophenyl)-8-methyl-4-(pentylamino) pyrido[2,3-d]pyrimidine-7(8H)-one] returned an EC50 of 5 to 22 µM. In addition, the CC50 at 2 days in the data set “cytotoxicity assay (MTT)” was in the range of 10 to 25 µM.

In the case of `Cn1c(=O)c(-c2c(Br)cccc2Br)cc2c(N)nc(Nc3ccccc3)nc21` [Example 49, 4-amino-6-(2,6-bromophenyl)-8-methyl-2-(phenylamino)pyrido[2,3-d]pyrimidine-7(8H)-one], the EC50 in data set [1] was less than 1 µM. In addition, the CC50 at 2 days in the data set “cytotoxicity assay (MTT)” is less than 10 µM.

With `CCCOCCNc1nc(N)nc2[nH]c(=O)c(-c3ccc(F)cc3)cc12` [Example 24, 2-amino-6-(4-fluorophenyl)-4-((2-propoxyethyl)amino) pyrido[2,3-d]pyrimidine-7(8H)-one], in data set [1], the EC50 is 1 to 5 µM. In the data set “cytotoxicity assay (MTT)”, the CC50 at 2 days is no less than 25 µM.

In the case of `O=C1Nc2nc(Nc3ccccc3)nc(On3nnc4ccccc43)c2CC1c1ccc(F)cc1` (centres unmarked) [Example 4], in data set [1], the EC50 lay within 1 to 5 µM. Also, the CC50 at 48 h in “cytotoxicity assay (MTT)” was in the range of 10 to 25 µM.

For `CCCCCNc1nc(N)nc2[nH]c(=O)c(-c3c(Cl)cccc3Cl)cc12` [Example 28, 2-amino-6-(2,6-dichlorophenyl)-4-(pentylamino)pyrido[2,3-d]pyrimidine-7(8H)-one], the EC50 in data set [1] was in the range of 1 to 5 µM. Besides, the CC50 at 2 days in “cytotoxicity assay (MTT)” lay within 10 to 25 µM.

In data set [1], `COCCn1c(=O)c(-c2c(Cl)cccc2Cl)cc2c(N)nc(Nc3ccccc3)nc21` [Example 58, 4-amino-6-(2,6-dichlorophenyl)-8-(2-methoxyethyl)-2-(phenylamino) pyrido[2,3-d]pyrimidine-7(8H)-one] registered an EC50 of less than 1 µM. Further, the CC50 at 2 days in “cytotoxicity assay (MTT)” is no less than 25 µM.

In data set [1], `Cn1c(=O)c(-c2c(Cl)cccc2Cl)cc2c(N)nc(Nc3ccc(Br)cc3)nc21` [Example 60, 4-amino-2-((4-bromophenyl)amino)-6-(2,6-dichlorophenyl)-8-methylpyrido[2,3-d]pyrimidine-7(8H)-one] returned an EC50 of less than 1 µM. For the same compound, the CC50 at 2 days in “cytotoxicity assay (MTT)” is less than 10 µM.

Regarding `CCCOCCNc1nc(Oc2ccccc2)nc2[nH]c(=O)c(-c3ccc(F)cc3)cc12` [Example 32, 6-(4-fluorophenyl)-2-phenoxy-4-((2-propoxyethyl)amino) pyrido[2,3-d]pyrimidine-7(8H)-one], in data set [1], the EC50 lay within 1 to 5 µM. Moreover, the CC50 at 2 days in the data set “cytotoxicity assay (MTT)” was no less than 25 µM.

As to `Cn1c(=O)c(-c2c(Cl)cccc2Cl)cc2c(N)nc(N)nc21` [Example 52], the EC50 in data set [1] was in the range of 5 to 22 µM. The compound also gave a CC50 at 48 h in the data set “cytotoxicity assay (MTT)” of no less than 25 µM.

For `COc1nc(N)nc2c1CC(c1c(Cl)cccc1Cl)C(=O)N2C` (centres unmarked) [Example 45, 2-amino-6-(2,6-dichlorophenyl)-4-methoxy-8-methyl-5,6-dihydropyrido[2,3-d]pyrimidine-7(8H)-one], the EC50 in data set [1] lay within 5 to 22 µM. Besides, in “cytotoxicity assay (MTT)”, the CC50 at 2 days was no less than 25 µM.

The compound `COCCOc1nc(N)nc2c1CC(c1c(Cl)cccc1Cl)C(=O)N2` (centres unmarked) [Example 13, 2-amino-6-(2,6-dichlorophenyl)-4-(2-methoxyethoxy)-5,6-dihydropyrido[2,3-d]pyrimidine-7(8H)-one] displayed an EC50 in data set [1] of 5 to 22 µM. The CC50 at 2 days in “cytotoxicity assay (MTT)” was no less than 25 µM.

Regarding `CCCOCCOc1nc(N)nc2c1cc(-c1c(Cl)cccc1Cl)c(=O)n2C` [Example 44, 2-amino-6-(2,6-dichlorophenyl)-8-methyl-4-(2-propoxyethoxy)pyrido[2,3-d]pyrimidine-7(8H)-one], in data set [1], the EC50 was in the range of 5 to 22 µM. In the data set “cytotoxicity assay (MTT)”, this compound returned a CC50 at 2 days of no less than 25 µM.

In data set [1], `O=C1Nc2nc(Nc3ccccc3)[nH]c(=O)c2CC1c1cccc2ccccc12` (centres unmarked) [Example 20, 6-(naphthalen-1-yl)-2-(phenylamino)-5,6-dihydropyrido[2,3-d]pyrimidine-4,7(3H,8H)-dione] registered an EC50 of 5 to 22 µM. Besides, in “cytotoxicity assay (MTT)”, the CC50 at 2 days fell in the range of 10 to 25 µM.

For `Nc1nc(Nc2ccccc2)nc2[nH]c(=O)c(-c3ccccc3)cc12` [Example 37, 4-amino-6-phenyl-2-(phenylamino)pyrido[2,3-d]pyrimidine-7(8H)-one], the EC50 in data set [1] was less than 1 µM. Moreover, in the data set “cytotoxicity assay (MTT)”, the CC50 at 2 days was 10 to 25 µM.

Compound `CCCOCCNc1nc(N)nc2c1cc(-c1ccc(F)cc1)c(=O)n2C` [Example 41, 2-amino-6-(4-fluorophenyl)-8-methyl-4-((2-propoxyethyl)amino)pyrido[2,3-d]pyrimidine-7(8H)-one] returned an EC50 in data set [1] of 1 to 5 µM. This compound also came in with a CC50 at 2 days in “cytotoxicity assay (MTT)” of no less than 25 µM.

Regarding `Cn1c(=O)c(-c2c(F)cccc2F)cc2c(N)nc(Nc3ccccc3)nc21` [Example 47, 4-amino-6-(2,6-difluorophenyl)-8-methyl-2-(phenylamino)pyrido[2,3-d]pyrimidine-7(8H)-one], the EC50 in data set [1] was less than 1 µM. Moreover, in the data set “cytotoxicity assay (MTT)”, the CC50 at 2 days lay within 10 to 25 µM.

In data set [1], `O=C1Nc2nc(NCc3ccccc3)[nH]c(=O)c2CC1c1c(Cl)cccc1Cl` (centres unmarked) [Example 22, 2-(benzylamino)-6-(2,6-dichlorophenyl)-5,6-dihydropyrido [2,3-d]pyrimidine-4,7(3H,8H)-dione] showed an EC50 of 5 to 22 µM. The compound also showed a CC50 at 2 days in “cytotoxicity assay (MTT)” of no less than 25 µM.

`Cn1c(=O)c(-c2ccc(F)cc2)cc2c(N3CCCC3)nc(N)nc21` [Example 43]: the EC50 in data set [1] was in the range of 5 to 22 µM. In addition, the CC50 at 48 h in “cytotoxicity assay (MTT)” is no less than 25 µM.

In data set [1], `Cn1c(=O)c(-c2c(Cl)cccc2Cl)cc2cnc(Nc3ccccc3)nc21` [Example 53, 6-(2,6-dichlorophenyl)-8-methyl-2-(phenylamino)pyrido[2,3-d]pyrimidine-7(8H)-one] gave an EC50 of less than 1 µM. In “cytotoxicity assay (MTT)”, this compound came in with a CC50 at 2 days of less than 10 µM.

In data set [1], `O=C1Nc2nc(Oc3ccccc3)nc(On3nnc4ccccc43)c2CC1c1ccc(F)cc1` (centres unmarked) [Example 3, 4-((1H-benzo[d][1,2,3]triazol-1-yl)oxy)-6-(4-fluorophenyl)-2-phenoxy-3,4,5,6-tetrahydropyrido[2,3-d]pyrimidine-7(8H)-one] had an EC50 of 5 to 22 µM. Further, the CC50 at 48 h in “cytotoxicity assay (MTT)” is no less than 25 µM.

Consider `O=c1[nH]c2nc(Nc3ccccc3)[nH]c(=O)c2cc1-c1ccccc1` [Example 30, 6-phenyl-2-(phenylamino)pyrido[2,3-d]pyrimidine-4,7(3H,8H)-dione], for which the EC50 in data set [1] is 5 to 22 µM. Further, the CC50 at 2 days in the data set “cytotoxicity assay (MTT)” is no less than 25 µM.

In data set [1], `Nc1nc(Nc2ccccc2)nc2[nH]c(=O)c(-c3c(Br)cccc3Br)cc12` [Example 36, 4-amino-6-(2,6-dibromophenyl)-2-(phenylamino)pyrido[2,3-d]pyrimidine-7(8H)-one] showed an EC50 of 5 to 22 µM. This compound gave a CC50 at 2 days in the data set “cytotoxicity assay (MTT)” of no less than 25 µM.
